pIC50: −log10 of the molar value. “Also recorded” adds a separate entry of the source.
What was measured:
[1] = target: T1, recombinant human IDO1 enzyme (Homo sapiens, UniProt P14902); experiment: In vitro hIDO1 enzyme activity test (NFK Green fluorescence); format: biochemical; conditions: recombinant human IDO1, L-tryptophan substrate, pH 6.5
T1 construct: purchased NTRC NTRC-hlDO-10K
Summary of the method: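 Recombinant human IDO1 diluted to 20 nM in pH 6.5 phosphate buffer with ascorbate, catalase and methylene blue, preincubated with compound 30 min at 23° C, then L-tryptophan added (400 μM solution) for 90 min. NFK Green developed 4 h at 37° C (Ex 400/Em 510 nm); IC50 from 10-point 3-fold series, no-enzyme wells as 100% inhibition.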

[2] = target: T2, IDO1 enzyme in Hela cells (Homo sapiens, UniProt P14902); experiment: hIDO1 cytological activity assay (kynurenine in Hela cells by LC-MS); format: cell-based; conditions: Hela cells induced with 100 ng/mL recombinant human γ-interferon, 20 h, read-out: IC50 hIDO1 Cytoactive
T2 construct: recombinant human γ-interferon was added at a final concentration of 100 ng/mL to induce IDO1 expression; endogenous in cells; host or cells: Hela cells, induced with recombinant human γ-interferon
Protocol: The change of kynurenine in Hela cells was detected by the LC-MS method, and the IC50 value of the compound was used as an index, to evaluate the inhibitory effect of the compound on IDO1 enzyme.
A medium, trypsin and DPBS were pre-heated in a 37° C. water bath. The medium for cell culture was sucked out and washed with 10 mL of DPBS; then the pre-heated trypsin was added into the culture flask, and the flask was rotated to allow the trypsin to uniformly cover it, and then placed in a 37° C., 5% CO2 incubator and digested for 1-2 min; in each T150, cells were dispersed with 10-15 mL of medium, centrifuged at 800 rpm for 5 min, and then resuspended in 10 mL of medium; 1 mL of cell suspension was pipetted and the cells were counted with Vi-cell; Hela cells were diluted with medium to 5×10^5/mL, 80 μL of the solution was added to a 96-cell plate, and cultured at 37° C. for 5-6 h in a 5% CO2 incubator.
The compound was diluted to 1 mM in DMSO, and then diluted 3-fold in duplicate wells, with 9 gradients. 5 μL of the diluted solution of the compound in DMSO was added to the compound plate containing 95 μL of the medium, and mixed, followed by transferring 10 μL of the mixture to a cell plate.
10 μL of recombinant human γ-interferon was added at a final concentration of 100 ng/mL to induce IDO1 expression. The cells were incubated at 37° C. for 20 h in a 5% CO2 incubator. 4 μL of 5% (w/v) trichloroacetic acid was added thereto, mixed and incubated at 50° C. for 30 min. After centrifugation at 2400 rpm for 10 min, 40 μL of the supernatant was taken and placed in a 96-well V-bottom plate, and then a precipitant was added in the plate. After mixing, the mixture was centrifuged at 4000 rpm for 10 min. 100 μL of the supernatant was transferred to a new 96-well V-bottom plate. The content of kynurenine was determined by LC-MS.
The control wells having γ-interferon but no compound was set as 0% inhibition, and the control wells without Hela cell was set as 100% inhibition, and the IC50 value of the compound was calculated by analyzing the data with XLFit 5.

IDO1 = IDO1 (Mus musculus, UniProt P28776); experiment: In vivo pharmacodynamics of IDO1: Kyn level in lung and plasma of LPS-induced C57BL/6 mice
IDO1, sequence (P28776 whole entry): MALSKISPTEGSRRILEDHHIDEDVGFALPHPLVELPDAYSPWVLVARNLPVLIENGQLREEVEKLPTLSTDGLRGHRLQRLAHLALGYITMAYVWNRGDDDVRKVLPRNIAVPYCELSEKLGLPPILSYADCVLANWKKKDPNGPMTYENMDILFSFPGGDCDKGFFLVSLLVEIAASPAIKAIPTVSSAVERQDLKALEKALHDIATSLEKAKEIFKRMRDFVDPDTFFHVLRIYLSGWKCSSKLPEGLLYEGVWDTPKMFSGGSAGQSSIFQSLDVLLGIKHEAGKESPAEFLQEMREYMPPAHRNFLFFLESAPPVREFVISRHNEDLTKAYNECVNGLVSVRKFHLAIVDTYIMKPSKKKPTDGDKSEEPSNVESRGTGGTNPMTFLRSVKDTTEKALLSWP
Protocol: Prior to the experiment, 60 mg/kg sodium pentobarbital was injected into the abdominal cavity of the animals for anesthetizing. […] LPS was dissolved in PBS, and the dose is 25 μg/20 μL per animal. As a control, another 6 mice were received the same volume of PBS through the nasal cavity. Subsequently, the animals were housed as usual, and their plasma were collected at 25 h, 26 h, and 30 h after LPS/PBS induction, and the lung samples were collected at 26 h and 30 h (3 animals per a time point) and determined the kynurenine (Kyn) level.
Group 1, 40% polyethylene glycol 400 (PEG400) aqueous solution orally as a solvent control;
Group 2, 50 mg/kg NLG919 orally, formulated in 40% PEG400 aqueous solution;
Plasma were collected at 1 h, 2 h, 4 h and 6 h after the end of the last administration, and lung samples were collected at 2 h and 6 h (3 to 5 animals per a time point) and determined the Kyn level by the LC/MS method.

T2 sequence (P14902 whole entry): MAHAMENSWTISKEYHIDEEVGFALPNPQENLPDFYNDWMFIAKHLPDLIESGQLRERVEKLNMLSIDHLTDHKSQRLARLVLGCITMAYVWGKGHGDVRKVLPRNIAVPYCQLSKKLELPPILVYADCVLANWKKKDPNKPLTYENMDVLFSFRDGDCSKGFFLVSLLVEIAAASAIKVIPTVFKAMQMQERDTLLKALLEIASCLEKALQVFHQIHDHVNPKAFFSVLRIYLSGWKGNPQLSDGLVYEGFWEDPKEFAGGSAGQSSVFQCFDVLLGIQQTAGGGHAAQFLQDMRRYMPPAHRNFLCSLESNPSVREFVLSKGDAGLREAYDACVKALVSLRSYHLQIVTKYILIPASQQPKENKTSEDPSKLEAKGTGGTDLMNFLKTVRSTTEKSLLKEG
T1 sequence (P14902 whole entry): as above

| pIC50 [1] | pIC50 [2] | SMILES | in vivo activity of IDO1 / reduction of the Kyn level in lung and plasma (IDO1; 50 mg/kg orally at 0, 12 h and 24 h after induction, plasma 1-6 h, lung 2 h and 6 h after last administration) | degree of Kyn level reduction in lung and plasma compared to NLG919 (IDO1; 50 mg/kg orally, comparison with NLG919 at same dose, 50 mg/kg) |
| --- | --- | --- | --- | --- |
| 8.14 | 8.29 | OC(CC1c2sccc2-c2cncn21)C1CCCCC1 (single isomer, unassigned) [Example 7, cyclohexyl-2-(8H-thieno[3′,2′:3,4]pyrrolo[1,2-c]imidazol-8-yl)ethanol] | effectively inhibited in vivo activity of IDO1 and caused reduction of the Kyn level in lung and plasma | more significant than that of NLG919; also recorded: significantly reduced the Kyn level in lung and plasma |
| 6.67 | 6.05 | OC1CCC(C2c3sccc3-c3cncn32)CC1 (single isomer, unassigned) [Example 117, 4-(8H-thieno[3,4]pyrrolo[1,5-a]imidazol-8-yl)-cyclohexanol] |  |  |
| 6.41 | 5.70 | CC(C)(C(O)C1CCCCC1)C1c2sccc2-c2cncn21 (single isomer, unassigned) [Example 119, 1-cyclohexyl-2-methyl-2-(8H-thieno[3,4]pyrrolo[1,5-a]imidazol-8-yl)-propan-1-ol] |  |  |
| 7.08 | 6.21 | OC(CC1c2ccsc2-c2cncn21)C1CCCCC1 (centres unmarked) [Example 4, 1-cyclohexyl-2-(4H-thieno[3,4]pyrrolo[1,5-a]imidazol-4-yl)ethanol] |  |  |
| 7.34 | 7.04 | FC1(CCC2c3sccc3-c3cncn32)CCCCC1 (centres unmarked) [Example 39, 8-(2-(1-fluorocyclohexyl)ethyl)-8H-thieno[3′,2′:3,4]pyrrolo[1,2-c]imidazole] |  |  |
| 7.94 | 7.55 | O[C@@H](C[C@H]1c2sccc2-c2cncn21)C1CCC(F)(F)CC1 [Example 46, (1S)-1-(4,4-difluorocyclohexyl)-2-((S)-8H-thieno[3,4]pyrrolo[1,5-a]imidazol-8-yl)ethanol] |  |  |

From patent US10487088B2, “Tricyclic compound serving as immunomodulator” (Chia Tai Tianqing Pharmaceutical Group Co., Ltd., priority 2016, dated 2019)
